What was measured:
Format in all cases: in vivo
[1] = tested on: Cotton Aphid (Aphis gossypii); assay: Insecticidal test for cotton aphid in foliar spray assay on squash; set-up: key: A: 90-100; B: 80-89; C: 70-79; D: 60-69; E: 50-59; F: Less than 50; G: Inactive; H: Not tested; settings: Corrected % Control (Abbott), 3 days after spray
Description: Insecticidal Test for Cotton Aphid (Aphis gossypii) in Foliar Spray Assay Squash with fully expanded cotyledon leaves were trimmed to one cotyledon per plant and infested with cotton aphid (wingless adult and nymph) 1 day prior to chemical application. Each plant was examined before chemical application to ensure proper infestation (ca. 30-70 aphids per plant). Compounds (2 mg) were dissolved in 2 ml of acetone:methanol (1:1) solvent, forming stock solutions of 1000 ppm. The stock solutions were diluted 5× with 0.025% Tween 20 in H2O to obtain a solution at 200 ppm. Lower concentrations (50, 12.5, 3.125, 0.781 and 0.195 ppm) were prepared by making sequential 4× dilutions from the 200 ppm solution with a diluent consisting 80 parts of 0.025% Tween 20 in H2O and 20 parts of acetone:methanol (1:1). A hand-held Devilbiss sprayer was used to apply the spray solutions until runoff to both sides of the squash cotyledon leaves. Four plants (4 replications) were used for each concentration of each compound. Reference plants (solvent check) were sprayed with the diluent only. Treated plants were held in a holding room for 3 days at approximately 23° C. and 40% RH before the number of live aphids on each plant was recorded. Insecticidal activity was measured by Corrected % Control using Abbott's correction formula and presented in Table 1: Corrected % Control=100*(X−Y)/X • where X=No. of live aphids on solvent check plants • Y=No. of live aphids on treated plants

[2] = tested on: Green Peach Aphid (Myzus persicae); assay: Insecticidal test for green peach aphid in foliar spray assay on cabbage; set-up: key: A: 90-100; B: 80-89; C: 70-79; D: 60-69; E: 50-59; F: Less than 50; G: Inactive; H: Not tested; settings: Corrected % Control (Abbott), three days after spray
Description: Insecticidal Test for Green Peach Aphid (Myzus persicae) in Foliar Spray Assay Cabbage seedlings grown in 3-inch pots, with 2-3 small (3-5 cm) true leaves, were used as test substrate. The seedlings were infested with 20-50 green peach aphids (wingless adult and nymph) 2-3 days prior to chemical application. Four seedlings were used for each treatment. Compounds (2 mg) were dissolved in 2 ml of acetone:methanol (1:1) solvent, forming stock solutions of 1000 ppm. The stock solutions were diluted 5× with 0.025% Tween 20 in H2O to obtain a solution at 200 ppm. Lower concentrations (50, 12.5, 3.125 and 0.781 ppm) were prepared by making sequential 4× dilutions from the 200 ppm solution with a diluent consisting 80 parts of 0.025% Tween 20 in H2O and 20 parts of acetone:methanol (1:1). A hand-held Devilbiss sprayer was used for spraying a solution to both sides of cabbage leaves until runoff. Reference plants (solvent check) were sprayed with the diluent only. Treated plants were held in a holding room for three days at approximately 23° C. and 40% RH prior to grading. Evaluation was conducted by counting the number of live aphids per plant under a microscope. Insecticidal activity was measured by using Abbott's correction formula: Corrected % Control=100*(X−Y)/X • where X=No. of live aphids on solvent check plants • Y=No. of live aphids on treated plants

[3] = tested on: Green Leafhopper (Nephotettix sp.); assay: Root-uptake systemic assay on rice, green leafhopper; settings: 10 ppm in water of rice seedlings, 3rd instar nymphs, mortality observed at 2 and 6 days (day of tabled value not stated)
Description: (§1) Insecticidal Test for Brown Planthopper (Nilaparvata lugens) and Green Leafhopper (Nephotettix sp.) A root-uptake systemic assay was performed on both brown planthopper and green leafhopper. Four-week-old rice seedlings were submerged in 3-cm depth of water in the bottom portion (high 5 cm, diameter 3 cm) of a 2-part glass cylinder (high 18 cm, diameter 3 cm). A metal screen was used to hold the seedlings within the bottom portion. Scotch tape was used to bind the two portions of the cylinder after setting up the seedlings. A metal cap was used to cover the cylinder. There were 4 cylinders for each treatment. The test compound was dissolved in acetone to make a 10,000 ppm stock solution. The stock solution was incorporated at final test concentrations of 10 ppm in the water in which rice seedlings were submerged. Five laboratory-reared 3rd instar nymphs of brown planthopper or green leafhopper were introduced into each cylinder 3 hr after insecticide application. The treated test units were kept in a growth chamber with conditions set as followings: Temperature 28±0.5° C.; Relative humidity 70±0.5%; Photoperiod […].

[4] = tested on: Sweet Potato Whitefly (Bemisia tabaci); assay: Insecticidal test for sweet potato whitefly in foliar spray assay on cotton; settings: live large nymphs counted 12 days after spray of egg-infested leaves
Source text: Insecticidal Test for Sweet Potato Whitefly (Bemisia tabaci) in Foliar Spray Assay This test was designed to measure the capability of whitefly eggs and/or young nymphs to develop to large nymphs. Cotton seedlings at the growth stage of one or two expanding true leaf were trimmed so that only the first true leaf remained (cotyledon leaves were also removed). The plants were pre-infested with sweet potato whitefly eggs by keeping plants next to the colony-keeping plants for two days. The infested plants were carefully checked for presence of similar egg density before use in the insecticidal tests. Master solutions of test compounds at 1000 ppm were prepared in acetone: methanol (1:1). The 12.5 ppm spray solutions were then made by diluting 0.188 mL of the master solution with 14.812 ml of 0.025% Tween 20 in water. The lower concentrations were made by diluting the 12.5 ppm spray solution with a diluent consisting 98.75 parts of 0.025% Tween 20 in water and 1.25 parts of acetone:methanol (1:1). The diluent was used as solvent control. The test solutions were sprayed with a hand-held Devilbiss sprayer until runoff to both sides of the infested cotton leaves. Four plants (4 replications) were used for each treatment. Treated plants were held in a holding room for 12 days at approximately 23° C. and 40% RH before evaluation. To evaluate the efficacy of the compounds, the number of live large nymphs in an area of 1 square inch on the lower surface of the treated cotton leaves was counted under a microscope. Insecticidal activity was determined by Corrected % Control using Abbott's correction formula and presented in Table 3: Corrected % Control=100*(X−Y)/X • where X=No. of live large nymphs on solvent check plants • Y=No. of live large nymphs on treated plants

[5] = tested on: Brown Planthopper (Nilaparvata lugens); assay: Root-uptake systemic assay on rice, brown planthopper; settings: 10 ppm in water of rice seedlings, 3rd instar nymphs, mortality observed at 2 and 6 days (day of tabled value not stated)
Description: as §1

| Structure (SMILES) | % Control at ppm, against cotton aphid on squash (foliar spray) ([1]; 50 ppm) | % Control at ppm, against green peach aphid on cabbage (foliar spray) ([2]; 0.78 ppm) | % Control at ppm, against green peach aphid on cabbage (foliar spray) ([2]; 3.13 ppm) | % Control at ppm, against green peach aphid on cabbage (foliar spray) ([2]; 12.5 ppm) | % Control at ppm, against green peach aphid on cabbage (foliar spray) ([2]; 50 ppm) | % Control at ppm, against green peach aphid on cabbage (foliar spray) ([2]; 200 ppm) | % Control at ppm, against cotton aphid on squash (foliar spray) ([1]; 0.78 ppm) | % Control at ppm, against cotton aphid on squash (foliar spray) ([1]; 3.13 ppm) | % Control at ppm, against cotton aphid on squash (foliar spray) ([1]; 12.5 ppm) | % Systemic Control at 10 ppm on rice, Green Leafhopper [3] | % Control at ppm, against sweet potato whitefly on cotton, foliar spray ([4]; 0.781 ppm) | % Control at ppm, against sweet potato whitefly on cotton, foliar spray ([4]; 3.125 ppm) | % Control at ppm, against sweet potato whitefly on cotton, foliar spray ([4]; 12.500 ppm) | % Systemic Control at 10 ppm on rice, Brown Planthopper [5] |
| --- | --- | --- | --- | --- | --- | --- | --- | --- | --- | --- | --- | --- | --- | --- |
| CS(=O)(=NC#N)C1(c2ccc(Cl)nc2)CCC1 (stereo not drawn) [Compound 3, methyl(oxido)[1-(6-chloropyridin-3-yl)cyclobutyl]-λ^4-sulfanylidenecyanamide] | A (90-100) | – | – | – | – | – | – | – | – | – | – | – | – | – |
| CS(=O)(=NC#N)C1(c2ccc(Cl)nc2)CCOCC1 (stereo not drawn) [Compound 6, methyl(oxido)[4-(6-chloropyridin-3-yl)tetra hydro-pyran-4-yl]-λ^4-sulfanylidenecyanamide] | A (90-100) | G | G | G | G | A (90-100) | A (90-100) | A (90-100) | A (90-100) | – | – | – | – | – |
| CS(=O)(=NC#N)C1(c2ccc(Cl)nc2)CCCC1 (stereo not drawn) [Compound 4, methyl(oxido)[1-(6-chloropyridin-3-yl)cyclopentyl]-λ^4-sulfanylidenecyanamide] | A (90-100) | – | – | – | – | – | – | – | – | – | – | – | – | – |
| CS(=O)(=NC#N)C1(c2ccc(C(F)(F)F)nc2)CC1 (stereo not drawn) [Compound 1, methyl(oxido) {1-[6-(trifluoromethyl)pyridin-3-yl]cyclopropyl}-λ^4-sulfanylidenecyanamide] | A (90-100) | F (Less than 50) | B (80-89) | A (90-100) | A (90-100) | A (90-100) | A (90-100) | A (90-100) | A (90-100) | – | – | – | – | – |
| CS(=O)(=NC#N)C1(c2ccc(Cl)nc2)CCCCC1 (stereo not drawn) [Compound 5, methyl(oxido)[1-(6-chloropyridin-3-yl)cyclohexyl]-λ^4-sulfanylidenecyanamide] | A (90-100) | – | – | – | – | – | G | A (90-100) | A (90-100) | – | – | – | – | – |
| CS(=O)(=NC#N)C1(c2ccc(Cl)nc2)CC1 (stereo not drawn) [Compound 2, methyl(oxido) [1-(6-chloropyridin-3-yl)cyclopropyl]-λ^4-sulfanylidenecyanamide] | – | D (60-69) | A (90-100) | – | – | – | A (90-100) | A (90-100) | – | B (80-89) | F (Less than 50) | E (50-59) | C (70-79) | E (50-59) |
